Measured values as given in PubChem BioAssay (NCI).
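A five-concentration, 48-hour dose response in 96-well plates underlies each endpoint, interpolated linearly between surrounding concentrations. At the GI50, growth is halved. TGI: total growth inhibition.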

Columns and labels:
Assay in all cases: NCI anticancer screen, dose series, 48 h
HT29 colon = system: HT29 colon
ACHN renal = system: ACHN renal
HS 578T breast = system: HS 578T breast
RPMI-8226 leukemia = system: RPMI-8226 leukemia
SR leukemia = system: SR leukemia
HCT-15 colon = system: HCT-15 colon
SF-539 CNS = system: SF-539 CNS
OVCAR-5 ovarian = system: OVCAR-5 ovarian
TK-10 renal = system: TK-10 renal
OVCAR-3 ovarian = system: OVCAR-3 ovarian
BT-549 breast = system: BT-549 breast
SK-MEL-5 melanoma = system: SK-MEL-5 melanoma
PC-3 prostate = system: PC-3 prostate
MCF7 breast = system: MCF7 breast
786-0 renal = system: 786-0 renal
HOP-62 NSCLC = system: HOP-62 NSCLC
MDA-MB-231 breast = system: MDA-MB-231 breast
SF-268 CNS = system: SF-268 CNS
RXF 393 renal = system: RXF 393 renal
UO-31 renal = system: UO-31 renal
HCT-116 colon = system: HCT-116 colon
KM12 colon = system: KM12 colon
HL-60(TB) leukemia = system: HL-60(TB) leukemia
SK-OV-3 ovarian = system: SK-OV-3 ovarian
MDA-MB-468 breast = system: MDA-MB-468 breast
NCI-H23 lung = system: NCI-H23 lung
A549 NSCLC = system: A549 NSCLC
HCC-2998 colon = system: HCC-2998 colon
SK-MEL-2 melanoma = system: SK-MEL-2 melanoma
SN12C renal = system: SN12C renal
IGROV1 ovarian = system: IGROV1 ovarian
MDA-MB-435 = system: MDA-MB-435
HOP-92 NSCLC = system: HOP-92 NSCLC
SNB-19 CNS = system: SNB-19 CNS
NCI/ADR-RES ovarian = system: NCI/ADR-RES ovarian
UACC-257 melanoma = system: UACC-257 melanoma
SF-295 CNS = system: SF-295 CNS
NCI-H522 lung = system: NCI-H522 lung
SW-620 colon = system: SW-620 colon
A498 renal = system: A498 renal
NCI-H460 lung = system: NCI-H460 lung
LOX IMVI melanoma = system: LOX IMVI melanoma
U251 CNS = system: U251 CNS
DU-145 prostate = system: DU-145 prostate
T-47D breast = system: T-47D breast
CCRF-CEM leukemia = system: CCRF-CEM leukemia
COLO 205 colon = system: COLO 205 colon
OVCAR-8 ovarian = system: OVCAR-8 ovarian
NCI-H226 lung = system: NCI-H226 lung
CAKI-1 renal = system: CAKI-1 renal
SK-MEL-28 melanoma = system: SK-MEL-28 melanoma
UACC-62 melanoma = system: UACC-62 melanoma
MALME-3M melanoma = system: MALME-3M melanoma
M14 melanoma = system: M14 melanoma
MOLT-4 leukemia = system: MOLT-4 leukemia
EKVX NSCLC = system: EKVX NSCLC
SNB-75 CNS = system: SNB-75 CNS

`Cc1ccc(S(=O)(=O)c2nc(-c3ccccc3)oc2S(=O)(=O)CC(=O)N2CCCC2)cc1` was tested, and the GI50 (HT29 colon) was 1.54 µM, the TGI (HT29 colon) was 4.05 µM and the GI50 (ACHN renal) was 1.36 µM. The TGI (ACHN renal) was 2.65 µM, the GI50 (HS 578T breast) was 3.68 µM and the TGI (HS 578T breast) was 28.2 µM. It also gave a GI50 (RPMI-8226 leukemia) of 2.68 µM, a TGI (RPMI-8226 leukemia) of over 100 µM and a GI50 (SR leukemia) of 1.49 µM. For the same compound, the TGI (SR leukemia) was 6.6 µM, the GI50 (HCT-15 colon) was 1.4 µM and the TGI (HCT-15 colon) was 2.92 µM. It also gave a GI50 (SF-539 CNS) of 1.54 µM, a TGI (SF-539 CNS) of 2.91 µM and a GI50 (OVCAR-5 ovarian) of 11 µM. For the same compound, the TGI (OVCAR-5 ovarian) was 23.4 µM, the GI50 (TK-10 renal) was 1.7 µM and the TGI (TK-10 renal) was 3.15 µM. It also gave a GI50 (OVCAR-3 ovarian) of 1.27 µM, a TGI (OVCAR-3 ovarian) of 2.66 µM and a GI50 (BT-549 breast) of 3.89 µM. The TGI (BT-549 breast) was 11.8 µM, the GI50 (SK-MEL-5 melanoma) was 12.5 µM and the TGI (SK-MEL-5 melanoma) was 25.2 µM. It also gave a GI50 (PC-3 prostate) of 11.8 µM, a TGI (PC-3 prostate) of 30.7 µM and a GI50 (MCF7 breast) of 1.17 µM. It also gave a TGI (MCF7 breast) of 2.9 µM, a GI50 (786-0 renal) of 1.45 µM and a TGI (786-0 renal) of 2.93 µM. It also gave a GI50 (HOP-62 NSCLC) of 14.4 µM, a TGI (HOP-62 NSCLC) of 31 µM and a GI50 (MDA-MB-231 breast) of 1.63 µM. The TGI (MDA-MB-231 breast) was 3.11 µM, the GI50 (SF-268 CNS) was 12.2 µM and the TGI (SF-268 CNS) was 33.2 µM. It also gave a GI50 (RXF 393 renal) of 1.08 µM, a TGI (RXF 393 renal) of 2.41 µM and a GI50 (UO-31 renal) of 1.36 µM. For the same compound, the TGI (UO-31 renal) was 2.66 µM, the GI50 (HCT-116 colon) was 1.52 µM and the TGI (HCT-116 colon) was 3.34 µM. For the same compound, the GI50 (KM12 colon) was 14.9 µM, the TGI (KM12 colon) was 32 µM and the GI50 (HL-60(TB) leukemia) was 0.978 µM. For the same compound, the TGI (HL-60(TB) leukemia) was 3.48 µM, the GI50 (SK-OV-3 ovarian) was 15.6 µM and the TGI (SK-OV-3 ovarian) was 30.5 µM. The GI50 (MDA-MB-468 breast) was 0.587 µM, the TGI (MDA-MB-468 breast) was 1.97 µM and the GI50 (NCI-H23 lung) was 8.06 µM. The TGI (NCI-H23 lung) was 23.6 µM, the GI50 (A549 NSCLC) was 13.1 µM and the TGI (A549 NSCLC) was 29.1 µM. The GI50 (HCC-2998 colon) was 11.2 µM, the TGI (HCC-2998 colon) was 24.1 µM and the GI50 (SK-MEL-2 melanoma) was 13.1 µM. The TGI (SK-MEL-2 melanoma) was 26.2 µM, the GI50 (SN12C renal) was 6.68 µM and the TGI (SN12C renal) was 19.6 µM. The GI50 (IGROV1 ovarian) was 6.54 µM, the TGI (IGROV1 ovarian) was 20.8 µM and the GI50 (MDA-MB-435) was 3.08 µM. For the same compound, the TGI (MDA-MB-435) was 13.8 µM, the GI50 (HOP-92 NSCLC) was 2.71 µM and the TGI (HOP-92 NSCLC) was 8.32 µM. It also gave a GI50 (SNB-19 CNS) of 14.5 µM, a TGI (SNB-19 CNS) of 27.6 µM and a GI50 (NCI/ADR-RES ovarian) of 11.4 µM. The TGI (NCI/ADR-RES ovarian) was 65 µM, the GI50 (UACC-257 melanoma) was 1.73 µM and the TGI (UACC-257 melanoma) was 3.73 µM. It also gave a GI50 (SF-295 CNS) of 12.2 µM, a TGI (SF-295 CNS) of 25 µM and a GI50 (NCI-H522 lung) of 1.06 µM. The TGI (NCI-H522 lung) was 2.49 µM, the GI50 (SW-620 colon) was 0.801 µM and the TGI (SW-620 colon) was 2.24 µM. The GI50 (A498 renal) was 11.9 µM, the TGI (A498 renal) was 24.3 µM and the GI50 (NCI-H460 lung) was 7 µM. The TGI (NCI-H460 lung) was 22.5 µM, the GI50 (LOX IMVI melanoma) was 1.45 µM and the TGI (LOX IMVI melanoma) was 2.82 µM. The GI50 (U251 CNS) was 15.5 µM, the TGI (U251 CNS) was 29.7 µM and the GI50 (DU-145 prostate) was 1.63 µM. It also gave a TGI (DU-145 prostate) of 3.37 µM, a GI50 (T-47D breast) of 1.78 µM and a TGI (T-47D breast) of 4.94 µM. The GI50 (CCRF-CEM leukemia) was 0.529 µM, the TGI (CCRF-CEM leukemia) was 2.95 µM and the GI50 (COLO 205 colon) was 1.89 µM. For the same compound, the TGI (COLO 205 colon) was 4.38 µM, the GI50 (OVCAR-8 ovarian) was 7.2 µM and the TGI (OVCAR-8 ovarian) was 25.1 µM. For the same compound, the GI50 (NCI-H226 lung) was 13.3 µM, the TGI (NCI-H226 lung) was 34.7 µM and the GI50 (CAKI-1 renal) was 1.21 µM. For the same compound, the TGI (CAKI-1 renal) was 2.5 µM, the GI50 (SK-MEL-28 melanoma) was 1.82 µM and the TGI (SK-MEL-28 melanoma) was 3.54 µM. For the same compound, the GI50 (UACC-62 melanoma) was 4.53 µM, the TGI (UACC-62 melanoma) was 16.5 µM and the GI50 (MALME-3M melanoma) was 1.55 µM. For the same compound, the TGI (MALME-3M melanoma) was 2.95 µM, the GI50 (M14 melanoma) was 1.77 µM and the TGI (M14 melanoma) was 4.15 µM. It also gave a GI50 (MOLT-4 leukemia) of 1.73 µM, a TGI (MOLT-4 leukemia) of 5.22 µM and a GI50 (EKVX NSCLC) of 2.44 µM. The TGI (EKVX NSCLC) was 7.76 µM, the GI50 (SNB-75 CNS) was 3.89 µM and the TGI (SNB-75 CNS) was 17.4 µM.
